Results taken from patent publication US9676780B2, “Piperazine-substituted [1,2,4]triazolo[1,5-C]quinazolin-5-amine compounds with A2A antagonist properties” (MERCK SHARP & DOHME CORP., priority 2012, dated 2017).
pEC50: −log10 of the molar value. Like-named read-outs stand apart in the source and are kept apart here. Blank lines part the entries; values can stand above or below the compound they belong to.

Target: T1, human A2a receptor (Homo sapiens, UniProt P29274)
T1 construct: purchased Perkin-Elmer RBHA2AM400UA; host or cells: HEK293
T1 sequence (P29274 whole entry): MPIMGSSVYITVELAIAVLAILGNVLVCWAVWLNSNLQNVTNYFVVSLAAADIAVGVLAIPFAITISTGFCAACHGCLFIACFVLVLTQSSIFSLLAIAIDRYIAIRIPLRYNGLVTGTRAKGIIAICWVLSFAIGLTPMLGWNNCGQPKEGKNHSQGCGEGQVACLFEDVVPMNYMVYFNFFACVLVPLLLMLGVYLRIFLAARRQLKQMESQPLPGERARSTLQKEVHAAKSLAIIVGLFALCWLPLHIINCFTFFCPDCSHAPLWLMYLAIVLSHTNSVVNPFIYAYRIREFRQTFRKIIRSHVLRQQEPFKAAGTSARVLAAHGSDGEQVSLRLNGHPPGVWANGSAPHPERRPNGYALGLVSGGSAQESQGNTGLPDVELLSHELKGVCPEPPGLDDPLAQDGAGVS
Assay: A2a receptor competition binding assay (Scintillation Proximity, tritiated radioligand)
Conditions: 0.5 nM tritiated ligand, SPA beads, one hour at room temperature
Experimental: Binding affinities of compounds of the invention for the human A2a receptor were determined in a competition binding assay using Scintillation Proximity technology. […] The beads were then allowed to settle to the bottom of the wells for 1 hr, after which the membrane-associated radioactivity was determined by scintillation counting in a TopCount microplate reader. Ki values were determined using the Cheng-Prusoff equation.
• HEK293 cells expressing the human, rat, dog or monkey adenosine 2a receptor (Purchased from Perkin-Elmer # RBHA2AM400UA). • The Tritiated compound was prepared in-house by MRL Radiochemistry according to published methods. • Wheatgerm agglutinin-coated yttrium silicate SPA beads (GE Healthcare #RPNQ0023). […] This is a 2.5× solution. The final concentration in the assay is 0.5 nM. Calculate the concentration by counting two 5 ul aliquots. Membrane Preparation • Use 0.25 ug of membrane/well. Dilute membranes to 9.7 ug/ml in assay buffer. Treat with 20 ug/ml adenosine deaminase (ADA) for 15 minutes at room temperature to degrade endogenous adenosine. Membrane-Bead Mixture • Use 100 ug/well wheatgerm agglutinin-coated yttrium silicate SPA beads. • Mix ADA-treated membranes and SPA beads together for 30 min prior to assay. […] Incubate for one hour at room temperature with agitation. • Include total binding (assay buffer+1% DMSO) and non-specific binding (CGS15943, 1 uM) wells. Counting • Allow the beads to settle for one hour. • Count in TopCount. Calculations • A curve fitting program (i.e., Prism, Activity Base, Chemcart) is used to determine the EC50.
The Ki value is calculated using the Cheng-Prusoff equation. Ki=EC50/(1+(radioligand concentration/Kd))

[1] = membranes from HEK293 cells expressing the human A2a receptor, read-out: A2a EC50

Compound: COc1cccc2c1nc(N)n1nc(CN3CCN(Cc4cc(F)cc(F)c4)CC3C)nc21 (centres unmarked) [Ex-26]
pEC50 [1]: 7.66

Compound: COc1cccc2c1nc(N)n1nc(CN3CCN(c4ccccc4C#N)CC3C)nc21 (centres unmarked) [Ex-59]
pEC50 [1]: 7.51

Compound: COc1cccc2c1nc(N)n1nc(CN3CCN(c4cccc(C#N)c4)CC3C)nc21 (centres unmarked) [Ex-60]
pEC50 [1]: 7.73

Compound: COc1cccc2c1nc(N)n1nc(CN3CC(C)N(c4ccccc4)CC3C)nc21 (centres unmarked) [Ex-8]
pEC50 [1]: 7.67

Compound: COc1cccc2c1nc(N)n1nc(CN3CCN(Cc4ncco4)CC3C)nc21 (centres unmarked) [Ex-16]
pEC50 [1]: 7.44

Compound: COc1cccc2c1nc(N)n1nc(CN3CCN(Cc4ncccc4F)CC3C)nc21 (centres unmarked) [Ex-19]
pEC50 [1]: 7.53

Compound: COc1cccc2c1nc(N)n1nc(CN3CCN(c4ccc5ncccc5c4)CC3C)nc21 (centres unmarked) [Ex-63]
pEC50 [1]: 8.84

Compound: COc1cccc2c1nc(N)n1nc(CN3CCN(Cc4c(C)nc5scnn45)CC3C)nc21 (centres unmarked) [Ex-15]
pEC50 [1]: 8.09

Compound: CCn1cncc1CN1CCN(Cc2nc3c4cccc(OC)c4nc(N)n3n2)C(C)C1 (centres unmarked) [Ex-14]
pEC50 [1]: 7.28

Compound: COc1cccc2c1nc(N)n1nc(CN3CCN(c4nnn[nH]4)CC3C)nc21 (centres unmarked) [Ex-54]
pEC50 [1]: 6.97

Compound: COc1cccc2c1nc(N)n1nc(CN3CCN(c4ccc(Cl)cc4)C[C@@H]3C)nc21 [Ex-34]
pEC50 [1]: 7.73

Compound: COc1cccc2c1nc(N)n1nc(CN3CCN(Cc4cccc(Oc5ccccc5)c4)CC3C)nc21 (centres unmarked) [Ex-22]
pEC50 [1]: 8.00

Compound: COc1cccc2c1nc(N)n1nc(CN3C4CCC3C3CCC4N3c3ccc(C(F)(F)F)cn3)nc21 [Ex-205]
pEC50 (A2a EC50, membranes from HEK293 cells expressing the human A2a receptor): 8.39

Compound: COc1cc(F)cc2c1nc(N)n1nc(CN3CCN(c4ccc(F)cc4)CC3C)nc21 (centres unmarked) [Ex-11]
pEC50 [1]: 8.11

Compound: COc1cccc2c1nc(N)n1nc(CN3CCN(Cc4cc(C)ccc4C)CC3C)nc21 (centres unmarked) [Ex-36]
pEC50 [1]: 7.74

The remaining lines, values ahead:

pEC50 [1]: 8.67
Compound: COc1cccc2c1nc(N)n1nc(CN3CCN(c4ccc(F)c(Cl)c4)CC3C)nc21 (centres unmarked) [Ex-102]

pEC50 [1]: 8.96
Compound: COc1cccc2c1nc(N)n1nc(CN3CCN(c4ccc5nc(C6CC6)oc5c4)CC3C)nc21 (centres unmarked) [Ex-110]

pEC50 [1]: 8.77
Compound: COc1cc(OC)cc(N2CCN(Cc3nc4c5cccc(OC)c5nc(N)n4n3)C(C)C2)c1 (centres unmarked) [Ex-133]

pEC50 [1]: 8.66
Compound: COc1cccc2c1nc(N)n1nc(CN3CCN(c4ccc(OCC5CC5)cc4)CC3C)nc21 (centres unmarked) [Ex-152]

pEC50 [1]: 8.15
Compound: COc1cccc2c1nc(N)n1nc(CN3CCN(c4cccc(C)c4)CC3C)nc21 (centres unmarked) [Ex-65]

pEC50 [1]: 7.71
Compound: COc1cccc2c1nc(N)n1nc(CN3CCN(c4noc(C(C)C)n4)CC3C)nc21 (centres unmarked) [Ex-80]

pEC50 [1]: 6.28
Compound: COCCOc1ccc(N2CCN(Cc3nc4c5ccccc5nc(N)n4n3)CC2)cc1 [Ex-161]

pEC50 [1]: 8.62
Compound: COc1cccc2c1nc(N)n1nc(CN3CCN(c4cccc(N(C)C)c4)CC3C)nc21 (centres unmarked) [Ex-126]

pEC50 [1]: 7.74
Compound: COc1cccc2c1nc(N)n1nc(CN3CCN(c4ccnc(C(F)(F)F)c4)CC3C)nc21 (centres unmarked) [Ex-97]

pEC50 [1]: 8.51
Compound: COc1cccc2c1nc(N)n1nc(CN3CCN(c4ccc(F)cc4F)CC3C)nc21 (centres unmarked) [Ex-95]

pEC50 [1]: 8.80
Compound: COc1cccc2c1nc(N)n1nc(CN3CCN(c4cccc5c4cnn5C)CC3C)nc21 (centres unmarked) [Ex-112]

pEC50 [1]: 7.81
Compound: COc1cccc2c1nc(N)n1nc(CN3CCN(C(=O)c4ccc(C(F)(F)F)cc4)CC3(C)C)nc21 [Ex-200]

pEC50 [1]: 7.84
Compound: C[C@@H]1CN(c2ccc(F)cc2)CCN1Cc1nc2c3cccc(Br)c3nc(N)n2n1 [Ex-157]

pEC50 [1]: 7.97
Compound: COc1cccc2c1nc(N)n1nc(CN3CCN(c4ccc(C(F)(F)F)cn4)CC3(C)C)nc21 [Ex-199]

pEC50 [1]: 7.69
Compound: COc1cccc2c1nc(N)n1nc(CN3CCN(c4ccc(C#N)cn4)CC3C)nc21 (centres unmarked) [Ex-137]

pEC50 [1]: 8.51
Compound: COc1cccc2c1nc(N)n1nc(CN3CCN(c4ccc(Cl)c(Cl)c4)CC3C)nc21 (centres unmarked) [Ex-127]

pEC50 [1]: 8.60
Compound: COc1cccc2c1nc(N)n1nc(CCN3CCN(c4ccc(F)cn4)CC3)nc21 [Ex-164]

pEC50 [1]: 7.37
Compound: COc1cccc2c1nc(N)n1nc(CN3CCN(c4nc(C(C)(C)C)no4)CC3C)nc21 (centres unmarked) [Ex-91]

pEC50 [1]: 8.52
Compound: COc1cncc(N2CCN(Cc3nc4c5cccc(OC)c5nc(N)n4n3)C(C)C2)c1OC (centres unmarked) [Ex-116]

pEC50 [1]: 7.87
Compound: COc1cccc2c1nc(N)n1nc(CN3CCN(c4cc(F)cc(C(=O)O)c4)CC3C)nc21 (centres unmarked) [Ex-149]
